One experiment addresses T1, GST-JAK1(866-1154) (Homo sapiens, UniProt P23458).
T1 construct: GST-JAK1(866-1154); made in house
Description: EPK JAK-family kinases profiling assay (Caliper mobility shift), JAK1. It counts as biochemical. Conditions: ATP 40 μM, 50 nM kinase. An outline of the steps: (§1)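 Turnover was read as substrate/product ratio after mobility-shift capillary-like separation of each reaction, run for 60 min at 30 °C with GST-tagged kinase domain, labelled peptide and ATP, and terminated with EDTA stop buffer.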

The next experiment deals with T2, GST-JAK2(808-1132) (Homo sapiens, UniProt O60674).
T2 construct: GST-JAK2(808-1132); purchased Invitrogen (Carlsbad, USA) #4288
T2 sequence (O60674 808-1132): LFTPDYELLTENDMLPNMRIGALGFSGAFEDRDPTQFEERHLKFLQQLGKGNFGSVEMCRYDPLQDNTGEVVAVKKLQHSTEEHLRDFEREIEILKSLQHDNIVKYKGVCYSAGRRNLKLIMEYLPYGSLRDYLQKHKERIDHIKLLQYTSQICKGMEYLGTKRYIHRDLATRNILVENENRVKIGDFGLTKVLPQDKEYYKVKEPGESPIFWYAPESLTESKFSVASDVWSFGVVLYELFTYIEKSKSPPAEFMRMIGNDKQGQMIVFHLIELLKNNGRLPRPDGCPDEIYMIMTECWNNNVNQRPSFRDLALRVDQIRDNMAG
Briefly: EPK JAK-family kinases profiling assay (Caliper mobility shift), JAK2. The format is biochemical. Conditions: ATP 20 μM, 1.8 nM kinase. An outline of the steps:
as §1

The target in a further experiment is T3, GST-JAK3(811-1124) (Homo sapiens, UniProt P52333).
T3 construct: GST-JAK3(811-1124); made in house
T3 sequence (P52333 811-1124): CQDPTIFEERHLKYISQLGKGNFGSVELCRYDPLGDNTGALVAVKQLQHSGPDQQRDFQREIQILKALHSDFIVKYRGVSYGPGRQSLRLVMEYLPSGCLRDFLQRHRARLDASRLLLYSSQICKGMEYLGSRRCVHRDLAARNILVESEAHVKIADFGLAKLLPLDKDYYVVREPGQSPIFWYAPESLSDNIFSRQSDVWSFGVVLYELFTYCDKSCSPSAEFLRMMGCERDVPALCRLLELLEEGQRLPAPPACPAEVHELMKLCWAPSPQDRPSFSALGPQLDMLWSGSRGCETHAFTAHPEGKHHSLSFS
Description: EPK JAK-family kinases profiling assay (Caliper mobility shift), JAK3. It counts as biochemical. Conditions: ATP 80 μM, 6 nM kinase. The procedure, abridged:
as §1

In the next experiment the target is T4, GST-TYK2(888-1187) (Homo sapiens, UniProt P29597).
T4 construct: GST-TYK2(888-1187); made in house
T4 sequence (P29597 888-1187): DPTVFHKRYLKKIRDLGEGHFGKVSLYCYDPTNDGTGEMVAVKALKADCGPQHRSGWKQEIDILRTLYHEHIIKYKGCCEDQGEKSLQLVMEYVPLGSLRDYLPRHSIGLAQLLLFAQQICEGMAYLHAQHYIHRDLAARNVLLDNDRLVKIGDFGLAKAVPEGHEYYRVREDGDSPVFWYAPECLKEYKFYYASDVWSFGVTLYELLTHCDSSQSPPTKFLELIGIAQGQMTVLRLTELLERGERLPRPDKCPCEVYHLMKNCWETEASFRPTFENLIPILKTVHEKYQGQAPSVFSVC
Description: EPK JAK-family kinases profiling assay (Caliper mobility shift), TYK2. It counts as biochemical. Conditions: ATP 30 μM, 40 nM kinase. An outline of the steps: as §1

Experiment [1] concerns JAK/STAT pathway (JAK1/JAK2-dependent nuclear translocation of STAT1-GFP). Briefly: Inhibition of the JAK/STAT pathway: IFN-γ stimulated nuclear translocation of STAT1-GFP in HT1080 fibrosarcoma cells. The format is cell-based. Conditions: Homo sapiens, HT-1080; HT1080 STAT1-GFP cells, 100 ng/ml IFN-γ 2 hours, compound added 30 min before; read-out: STAT1translo IC50. An outline of the steps: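 Readout is the nuclear-minus-cytoplasmic GFP-STAT1 intensity, imaged at 10× using Hoechst-defined nuclear masks over at least 1000 cells/well. Stably transfected HT1080 fibrosarcoma cells were pretreated 30 min with compound (final 0.003–10 μM, 0.1% DMSO) before IFN-γ challenge.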

Each structure is given as a SMILES string.

T1 sequence (P23458 866-1154): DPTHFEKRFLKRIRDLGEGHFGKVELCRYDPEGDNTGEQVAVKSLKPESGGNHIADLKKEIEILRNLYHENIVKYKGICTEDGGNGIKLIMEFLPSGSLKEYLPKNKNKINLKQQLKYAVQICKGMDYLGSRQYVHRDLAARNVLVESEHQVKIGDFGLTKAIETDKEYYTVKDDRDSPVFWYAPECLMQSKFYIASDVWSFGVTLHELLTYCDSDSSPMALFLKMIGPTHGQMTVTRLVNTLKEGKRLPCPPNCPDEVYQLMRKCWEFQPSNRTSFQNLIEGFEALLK

For `CS(=O)(=O)c1ccc(-c2cccc3ncc(-c4cnn(C5CCNCC5)c4)nc23)cc1F` [Example 99, 8-(3-Fluoro-4-methanesulfonyl-phenyl)-2-(1-piperidin-4-yl-1H-pyrazol-4-yl)-quinoxaline], the IC50 worked out at 870 nM on GST-JAK1(866-1154); 22 nM at GST-JAK2(808-1132); 4850 nM at GST-JAK3(811-1124); 805 nM on GST-TYK2(888-1187); 1360 nM in experiment [1].
In the case of `COCCN1CCC(n2cc(-c3cnc4cccc(-c5cc(F)c(CN6CCOCC6)c(F)c5)c4n3)cn2)CC1` [Example 123, 8-(3,5-Difluoro-4-morpholin-4-ylmethyl-phenyl)-2-{1-[1-(2-methoxy-ethyl)-piperidin-4-yl]-1H-pyrazol-4-yl}-quinoxaline], the IC50 on GST-JAK1(866-1154) amounted to 135 nM; at GST-JAK2(808-1132), 5 nM; on GST-JAK3(811-1124) it was 1950 nM; on GST-TYK2(888-1187), 170 nM; in experiment [1] it was 180 nM.
The like results for `CN(C)CCN(C)C(=O)c1ccc(-c2cnc3cccc(-c4cc(F)c(CN5CCOCC5)c(F)c4)c3n2)cn1` [Example 110, 5-[8-(3,5-Difluoro-4-morpholin-4-ylmethyl-phenyl)-quinoxalin-2-yl]-pyridine-2-carboxylic acid (2-dimethylamino-ethyl)-methyl-amide] were, in that order, 5550 nM, 575 nM, more than 10000 nM, 9300 nM and 1590 nM.
In the case of `COc1cc(-c2cnc3cccc(-c4ccc(C(=O)N5CCOCC5)c(C)c4)c3n2)ccc1N1CCN(C)CC1` [Example 105, (4-{3-[3-Methoxy-4-(4-methyl-piperazin-1-yl)-phenyl]-quinoxalin-5-yl}-2-methyl-phenyl)-morpholin-4-yl-methanone], the IC50 on GST-JAK1(866-1154) came out at 810 nM; at GST-JAK2(808-1132), 32 nM; on GST-JAK3(811-1124), 1800 nM; on GST-TYK2(888-1187) it was 985 nM; in experiment [1], 895 nM.
Turning to `Cc1cc(-c2cccc3ncc(-c4ccc(C(=O)N5CCN(C)CC5)c(C)c4)nc23)ccc1CN1CCS(=O)(=O)CC1` [Example 43, (4-{8-[4-(1,1-Dioxido-thiomorpholin-4-ylmethyl)-3-methyl-phenyl]-quinoxalin-2-yl}-2-methyl-phenyl)-(4-methyl-piperazin-1-yl)-methanone], the IC50 was determined as 420 nM on GST-JAK1(866-1154); 27 nM on GST-JAK2(808-1132); 870 nM at GST-JAK3(811-1124); 715 nM at GST-TYK2(888-1187); 1130 nM in experiment [1].
On to `Cc1cc(-c2cnc3cccc(-c4cc(F)c(CN5CCOCC5)c(F)c4)c3n2)ccc1C(=O)N1CCN(C)CC1` [Example 42, {4-[8-(3,5-Difluoro-4-morpholin-4-ylmethyl-phenyl)-quinoxalin-2-yl]-2-methyl-phenyl}-(4-methyl-piperazin-1-yl)-methanone], for which the IC50 on GST-JAK1(866-1154) is 715 nM; on GST-JAK2(808-1132), 18 nM; on GST-JAK3(811-1124), 2150 nM; at GST-TYK2(888-1187) it was 1450 nM; in experiment [1], 857 nM.
`COc1cc(-c2cnc3cccc(-c4cc(F)c(CN5CCS(=O)(=O)CC5)c(F)c4)c3n2)ccn1` [Example 106, 8-[4-(1,1-Dioxido-thiomorpholin-4-ylmethyl)-3,5-difluoro-phenyl]-2-(2-methoxy-pyridin-4-yl)-quinoxaline]: the IC50 on GST-JAK1(866-1154) was 365 nM; at GST-JAK2(808-1132), 82 nM; on GST-JAK3(811-1124), 195 nM; at GST-TYK2(888-1187), 1970 nM; in experiment [1] it was 202 nM.
For the molecule `COc1cc(-c2cnc3cccc(-c4cc(F)c(CN5CCS(=O)(=O)CC5)c(F)c4)c3n2)ccc1OCCCN1CCOCC1` [Example 86, 8-[4-(1,1-Dioxido-thiomorpholin-4-ylmethyl)-3,5-difluoro-phenyl]-2-[3-methoxy-4-(3-morpholin-4-yl-propoxy)-phenyl]-quinoxaline], the IC50 is 6.65 nM at GST-JAK1(866-1154); less than 3 nM on GST-JAK2(808-1132); 110 nM on GST-JAK3(811-1124); 38 nM on GST-TYK2(888-1187); 93 nM in experiment [1].
For the molecule `CCN1CCN(c2ccc(-c3cnc4cccc(-c5cc(F)c(CN6CCOCC6)c(F)c5)c4n3)cc2C)CC1` [Example 103, 8-(3,5-Difluoro-4-morpholin-4-ylmethyl-phenyl)-2-[4-(4-ethyl-piperazin-1-yl)-3-methyl-phenyl]-quinoxaline], the half-inhibitory concentration (IC50) on GST-JAK1(866-1154) is 1150 nM; on GST-JAK2(808-1132), 30.5 nM; on GST-JAK3(811-1124), 3600 nM; at GST-TYK2(888-1187), 1200 nM; in experiment [1], 824 nM.
The like results for `O=C1CN(Cc2c(F)cc(-c3cccc4ncc(-c5cnn(C6CCOCC6)c5)nc34)cc2F)CCN1` [Example 118, 4-(2,6-Difluoro-4-{3-[1-(tetrahydro-pyran-4-yl)-1H-pyrazol-4-yl]-quinoxalin-5-yl}-benzyl)-piperazin-2-one] were, in that order, 470 nM, 25 nM, more than 10000 nM, 955 nM and 360 nM.
The like results for `CN1CCN(c2ccc(-c3cnc4cccc(-c5cc(F)c(CN6CCOCC6)c(F)c5)c4n3)cc2)CC1` [Example 87, 8-(3,5-Difluoro-4-morpholin-4-ylmethyl-phenyl)-2-[4-(4-methyl-piperazin-1-yl)-phenyl]-quinoxaline] were, in that order, 225 nM, 33.5 nM, 3500 nM, 720 nM and 1320 nM.
The like results for `COc1cc(-c2cnc3cccc(-c4cc(F)c(CN5CCOCC5)c(F)c4)c3n2)ccc1OCCCN1CCOCC1` [Example 84, 8-(3,5-Difluoro-4-morpholin-4-ylmethyl-phenyl)-2-[3-methoxy-4-(3-morpholin-4-yl-propoxy)-phenyl]-quinoxaline] were, in that order, 58.5 nM, 5.5 nM, 975 nM, 270 nM and 1460 nM.
For the molecule `CN1CCN(c2ccc(-c3cnc4cccc(-c5cc(F)c(CN6CCS(=O)(=O)CC6)c(F)c5)c4n3)cn2)CC1` [Example 108, 8-[4-(1,1-Dioxido-thiomorpholin-4-ylmethyl)-3,5-difluoro-phenyl]-2-[6-(4-methyl-piperazin-1-yl)-pyridin-3-yl]-quinoxaline], the IC50 on GST-JAK1(866-1154) was determined as 254 nM; on GST-JAK2(808-1132), 24.5 nM; on GST-JAK3(811-1124), 2400 nM; at GST-TYK2(888-1187) it was 417 nM; in experiment [1] it was 150 nM.
As for `Cc1cc(-c2cnc3cccc(-c4cc(F)c(CN5CCS(=O)(=O)CC5)c(F)c4)c3n2)cnc1C(=O)N(C)CCN(C)C` [Example 113, 5-{8-[4-(1,1-Dioxido-thiomorpholin-4-ylmethyl)-3,5-difluoro-phenyl]-quinoxalin-2-yl}-3-methyl-pyridine-2-carboxylic acid (2-dimethylamino-ethyl)-methyl-amide], the IC50 worked out at 615 nM at GST-JAK1(866-1154); 28.5 nM on GST-JAK2(808-1132); 3300 nM at GST-JAK3(811-1124); 1150 nM at GST-TYK2(888-1187); 1940 nM in experiment [1].
As for `Fc1cc(-c2cccc3ncc(-c4cnn(C5CCOCC5)c4)nc23)cc(F)c1CN1CCOCC1` [Example 117, 8-(3,5-Difluoro-4-morpholin-4-ylmethyl-phenyl)-2-[1-(tetrahydro-pyran-4-yl)-1H-pyrazol-4-yl]-quinoxaline], the IC50 at GST-JAK1(866-1154) was 76.5 nM; on GST-JAK2(808-1132), less than 3 nM; at GST-JAK3(811-1124), 1040 nM; on GST-TYK2(888-1187), 125 nM; in experiment [1] it was 60 nM.
With `CCN1CCN(Cc2ccc(-c3cnc4cccc(-c5cc(F)c(CN6CCOCC6)c(F)c5)c4n3)cc2C)CC1` [Example 92, 8-(3,5-Difluoro-4-morpholin-4-ylmethyl-phenyl)-2-[4-(4-ethyl-piperazin-1-ylmethyl)-3-methyl-phenyl]-quinoxaline], the IC50 was determined as 1380 nM at GST-JAK1(866-1154); 43 nM at GST-JAK2(808-1132); 4900 nM on GST-JAK3(811-1124); 3650 nM at GST-TYK2(888-1187); 2140 nM in experiment [1].
As for `COc1cc(-c2cnc3cccc(-c4cc(F)c(CN5CCOCC5)c(F)c4)c3n2)ccc1N1CCN(C)CC1` [Example 104, 8-(3,5-Difluoro-4-morpholin-4-ylmethyl-phenyl)-2-[3-methoxy-4-(4-methyl-piperazin-1-yl)-phenyl]-quinoxaline], the IC50 at GST-JAK1(866-1154) is 52 nM; on GST-JAK2(808-1132) it was less than 3 nM; on GST-JAK3(811-1124), 390 nM; on GST-TYK2(888-1187), 130 nM; in experiment [1] it was 420 nM.

What is called IC50 is the concentration needed to halve the response being measured.

Source of the values: US8193189B2, “Quinoxaline derivatives as tyrosine kinase activity inhibitors” (Novartis AG, priority 2007, dated 2012).
